Results: patent US5556878A, “Δ^6,7 -taxols antineoplatic use and pharmaceutical compositions containing them” (The Upjohn Company, priority 1994, dated 1996)
In brackets after ≈: the same amount, converted by molar mass. Read-outs that look alike come from different tables or passages of the source.

Legend:
L1210 leukemia = L1210 leukemia cell proliferation inhibition (Table I); type: cell-based; details: Mus musculus
From the text: The biological activity of the compounds of this invention has been further confirmed using well known procedures against L1210 leukemia and the results set forth in Table I. The results were obtained using standard well known procedure (Li, L. H.; Kuentzel, S. L.; Murch, L. L.; Pschigoga, L. M.; and W. C. Krueger, "Comparative biological and biochemical effects of nogalamycin and its analogs on L1210 leukemia," Cancer Res. 39:4816-4822 (1979)). The results are expressed as an IC50 which is the drug concentration required to inhibit cell proliferation to 50% of that of untreated control cells. Lower numbers indicated greater activity.

tubulin = experiment: In vitro tubulin polymerization assay after Gaskin et al.; type: biochemical; details: 20° C.; for induction of tubulin polymerization in vitro: compared with taxol
From the text: (§1) The biological activity of the 7-deoxy-7β,8β-methanotaxol compounds (Formula II) of the invention has been confirmed using well known procedures.
(§2) The biological activity of the 7-deoxy-7-halotaxol compounds (Formula III) of the invention has been confirmed using well known procedures.

[1] = test system: L1210 mouse leukemia carcinoma cells; experiment: Cytotoxicity in L1210 mouse leukemia carcinoma cells in culture (IC90); type: cell-based; details: read-out: IC90 (90% growth inhibitory concentration)
From the text: as §1

[2] = test system: A2780 (human ovarian carcinoma) cells; experiment: Cytotoxicity in A2780 (human ovarian carcinoma) cells in culture (IC90); type: cell-based; details: read-out: IC90 (90% growth inhibitory concentration)
From the text: as §2

[3] = L1210, drug concentration required to inhibit cell proliferation to 50% of untreated control cells, read-out: L1210 (IC50 μg/ml)
[4] = L1210, read-out: L1210 (IC50 μg/ml)

Row | SMILES | IC50 (L1210 leukemia; [3]) | also measured
1 | CC(=O)O[C@H]1C(=O)[C@]23C[C@H]2C[C@H]2OC[C@@]2(OC(C)=O)[C@H]3[C@H](OC(=O)c2ccccc2)[C@]2(O)C[C@H](OC(=O)[C@H](OC(=O)OCC(Cl)(Cl)Cl)[C@@H](NC(=O)OC(C)(C)C)c3ccccc3)C(C)=C1C2(C)C [Compound 14DA, N-Debenzoyl-N-(t-butyl)oxycarbonyl-2'-{[(2,2,2-trichloroethyl)oxy]carbonyl}-7-deoxy-7β,8β-methanotaxol] | 0.012 µg/mL (≈ 0.0119 µM) | 
2 | CC(=O)O[C@H]1C(=O)[C@]2(C)C(F)C[C@H]3OC[C@@]3(OC(C)=O)[C@H]2[C@H](OC(=O)c2ccccc2)[C@]2(O)C[C@H](OC(=O)[C@H](OC(=O)OCC(Cl)(Cl)Cl)[C@@H](NC(=O)OC(C)(C)C)c3ccccc3)C(C)=C1C2(C)C (stereo partly drawn) [Compound 13DA, N-Debenzoyl-N-(t-butyl)oxycarbonyl-2'-{[(2,2,2-trichloroethyl)oxy]carbonyl}-7-deoxy-7-fluorotaxol] | 0.015 µg/mL (≈ 0.0146 µM) | 
3 | CC(=O)O[C@H]1C(=O)[C@]2(C)C=C[C@H]3OC[C@@]3(OC(C)=O)[C@H]2[C@H](OC(=O)c2ccccc2)[C@]2(O)C[C@H](OC(=O)[C@H](O)[C@@H](NC(=O)NC(C)(C)C)c3ccccc3)C(C)=C1C2(C)C [Compound 16F, 13-(N-t-Butylurea-β-phenyl-isoserinyl)-Δ^6,7-baccatin III] |  | IC50 (L1210 leukemia; [4]): 0.0032 µg/mL (≈ 0.00385 µM)
4 | CC(=O)O[C@H]1C(=O)[C@]23C[C@H]2C[C@H]2OC[C@@]2(OC(C)=O)[C@H]3[C@H](OC(=O)c2ccccc2)[C@]2(O)C[C@H](OC(=O)[C@H](O)[C@@H](NC(=O)c3ccccc3)c3ccccc3)C(C)=C1C2(C)C [Compound IIb, 7-Deoxy-7β,8β-methanotaxol] | 0.012 µg/mL (≈ 0.0144 µM) | induction of tubulin polymerization in vitro (tubulin): able to induce tubulin polymerization in vitro at 20 °C in a manner very similar to taxol; IC90 [1]: 0.025 µg/mL (≈ 0.0299 µM)
5 | CC(=O)O[C@H]1C(=O)[C@]2(C)C=C[C@H]3OC[C@@]3(OC(C)=O)[C@H]2[C@H](OC(=O)c2ccccc2)[C@]2(O)C[C@H](OC(=O)[C@H](OC(=O)OCC(Cl)(Cl)Cl)[C@@H](NC(=O)c3ccccc3)c3ccccc3)C(C)=C1C2(C)C [Compound 15AA, 2'-{[(2,2,2-Trichloroethyl)oxy]carbonyl)-7-deoxy-Δ^6,7-taxol] | 0.012 µg/mL (≈ 0.0119 µM) | 
6 | CC(=O)O[C@H]1C(=O)[C@]2(C)C=C[C@H]3OC[C@@]3(OC(C)=O)[C@H]2[C@H](OC(=O)c2ccccc2)[C@]2(O)C[C@H](OC(=O)[C@H](O)[C@@H](NC(=O)c3ccccc3)c3ccccc3)C(C)=C1C2(C)C [Compound 16A, 7-Deoxy-Δ^6,7-taxol] | 0.0042 µg/mL (≈ 0.00502 µM) | 
7 | CC(=O)O[C@H]1C(=O)[C@]23C[C@H]2C[C@H]2OC[C@@]2(OC(C)=O)[C@H]3[C@H](OC(=O)c2ccccc2)[C@]2(O)C[C@H](OC(=O)[C@H](OC(=O)OCC(Cl)(Cl)Cl)[C@@H](NC(=O)c3ccccc3)c3ccccc3)C(C)=C1C2(C)C [Compound 14AA, 2'-{[(2,2,2-Trichloroethyl)oxy]carbonyl}-7-deoxy-7β,8β-methanotaxol] | > 0.1 µg/mL | 
8 | CC(=O)O[C@H]1C(=O)[C@]2(C)C(F)C[C@H]3OC[C@@]3(OC(C)=O)[C@H]2[C@H](OC(=O)c2ccccc2)[C@]2(O)C[C@H](OC(=O)[C@H](O)[C@@H](NC(=O)OC(C)(C)C)c3ccccc3)C(C)=C1C2(C)C (stereo partly drawn) [Compound 20, N-Debenzoyl-N-(t-butyl)oxycarbonyl-7-deoxy-7-fluorotaxol] | 0.0038 µg/mL (≈ 0.00446 µM) | 
9 | CC(=O)O[C@H]1C(=O)[C@@]2(C)[C@H]([C@H](OC(=O)c3ccccc3)[C@]3(O)C[C@H](OC(=O)[C@H](O)[C@@H](NC(=O)c4ccccc4)c4ccccc4)C(C)=C1C3(C)C)[C@]1(OC(C)=O)CO[C@@H]1C[C@@H]2O [Taxol] | 0.015 µg/mL (≈ 0.0176 µM) | IC90 [1]: 0.06 µg/mL (≈ 0.0703 µM); IC90 [2]: 0.007 µg/mL (≈ 0.0082 µM)
10 | CC(=O)O[C@H]1C(=O)[C@]2(C)C(F)C[C@H]3OC[C@@]3(OC(C)=O)[C@H]2[C@H](OC(=O)c2ccccc2)[C@]2(O)C[C@H](OC(=O)[C@H](OC(=O)OCC(Cl)(Cl)Cl)[C@@H](NC(=O)c3ccccc3)c3ccccc3)C(C)=C1C2(C)C (stereo partly drawn) [Compound 13AA, 2'-{[(2,2,2-Trichloroethyl)-oxy]carbonyl)-7-deoxy-7-fluorotaxol] | 0.054 µg/mL (≈ 0.0524 µM) | 
11 | CC(=O)O[C@@]12CO[C@@H]1C[C@H](O)[C@@]1(C)C(=O)[C@H](O)C3=C(C)[C@@H](OC(=O)[C@H](O)[C@@H](NC(=O)OC(C)(C)C)c4ccccc4)C[C@@](O)([C@@H](OC(=O)c4ccccc4)[C@H]21)C3(C)C [Taxotere, reference compound] | 0.004 µg/mL (≈ 0.00495 µM) | 
12 | CC(=O)O[C@H]1C(=O)[C@]2(C)C=C[C@H]3OC[C@@]3(OC(C)=O)[C@H]2[C@H](OC(=O)c2ccccc2)[C@]2(O)C[C@H](OC(=O)[C@H](O)[C@@H](NC(=O)OC(C)(C)C)c3ccccc3)C(C)=C1C2(C)C [Compound 16D, N-Debenzoyl-N-(t-butyl)oxycarbonyl-7-deoxy-Δ^6,7-taxol] |  | IC50 (L1210 leukemia; [4]): 0.0016 µg/mL (≈ 0.00192 µM)
13 | CC(=O)O[C@H]1C(=O)[C@]2(C)C(F)C[C@H]3OC[C@@]3(OC(C)=O)[C@H]2[C@H](OC(=O)c2ccccc2)[C@]2(O)C[C@H](OC(=O)[C@H](O)[C@@H](NC(=O)c3ccccc3)c3ccccc3)C(C)=C1C2(C)C (stereo partly drawn) [Compound IIIb, 7-Deoxy-7-fluorotaxol] | 0.01 µg/mL (≈ 0.0117 µM) | potency in tubulin polymerization assay relative to taxol (tubulin): approximately half as potent as taxol; induction of tubulin polymerization in vitro (tubulin): able to induce tubulin polymerization in vitro at 20 °C in a manner very similar to taxol; IC90 [2]: 0.016 µg/mL (≈ 0.0187 µM)
14 | CC(=O)O[C@H]1C(=O)[C@]23C[C@H]2C[C@H]2OC[C@@]2(OC(C)=O)[C@H]3[C@H](OC(=O)c2ccccc2)[C@]2(O)C[C@H](OC(=O)[C@H](O)[C@@H](NC(=O)OC(C)(C)C)c3ccccc3)C(C)=C1C2(C)C [Compound 23, N-Debenzoyl-N-(t-butyl)oxycarbonyl-7-deoxy-7β,8β-methanotaxol] | 0.0046 µg/mL (≈ 0.00553 µM) | 
